Eight compounds from ChEMBL document CHEMBL1130922, “Solid phase synthesis of oligomannopeptoids that mimic the concanavalin A-binding trimannoside” (Bioorg Med Chem Lett, 1998) can be followed below.

The experiment is described as follows: Dissociation constant for binding to concanavalin A (ConA) was determined by fluorescence anisotropy assay.
The compound `CO[C@H]1[C@@H](OCCN(CC(N)=O)S(=O)(=O)c2cccc3c(N(C)C)cccc23)O[C@@H](CO)[C@@H](O)[C@@H]1O` gave a Kd of 122 uM l-1.

Compound `CN(C)c1cccc2c(S(=O)(=O)N(CCO[C@H]3O[C@@H](CO)[C@@H](O)[C@H](O)[C@H]3O)CC(=O)N(CCO[C@H]3O[C@@H](CO)[C@@H](O)[C@H](O)[C@H]3O)CC(=O)N(CCO[C@H]3O[C@@H](CO)[C@@H](O)[C@H](O)[C@H]3O)CC(=O)N(CCO[C@H]3O[C@@H](CO)[C@@H](O)[C@H](O)[C@H]3O)CC(=O)N(CCO[C@H]3O[C@@H](CO)[C@@H](O)[C@H](O)[C@H]3O)CC(=O)N(CCO[C@H]3O[C@@H](CO)[C@@H](O)[C@H](O)[C@H]3O)CC(N)=O)cccc12` had a Kd of 12 uM l-1.

The compound `CN(C)c1cccc2c(S(=O)(=O)N(CCO[C@H]3O[C@@H](CO)[C@@H](O[C@H]4O[C@@H](CO)[C@@H](O[C@H]5O[C@@H](CO)[C@@H](O)[C@H](O)[C@H]5O)[C@H](O)[C@H]4O)[C@H](O)[C@H]3O)CC(N)=O)cccc12` returned a Kd of 2 uM l-1.

In the case of `CN(C)c1cccc2c(S(=O)(=O)N(CCO[C@H]3O[C@@H](CO)[C@@H](O)[C@H](O)[C@H]3O)CC(N)=O)cccc12`, the Kd is given as 31 uM l-1.

On to `CN(C)c1cccc2c(S(=O)(=O)N(CCO[C@H]3O[C@@H](CO)[C@@H](O)[C@H](O)[C@H]3O)CC(=O)N(CCO[C@H]3O[C@@H](CO)[C@@H](O)[C@H](O)[C@H]3O)CC(N)=O)cccc12`, for which the Kd turned out to be 18 uM l-1.

`CN(C)c1cccc2c(S(=O)(=O)N(CCO[C@H]3O[C@@H](CO)[C@@H](O)[C@H](O)[C@H]3O)CC(=O)N(CCO[C@H]3O[C@@H](CO)[C@@H](O)[C@H](O)[C@H]3O)CC(=O)N(CCO[C@H]3O[C@@H](CO)[C@@H](O)[C@H](O)[C@H]3O)CC(=O)N(CCO[C@H]3O[C@@H](CO)[C@@H](O)[C@H](O)[C@H]3O)CC(N)=O)cccc12`: the Kd came out at 12 uM l-1.

Turning to `CN(C)c1cccc2c(S(=O)(=O)N(CCO[C@H]3O[C@@H](CO)[C@@H](O)[C@H](O)[C@H]3O)CC(=O)N(CCO[C@H]3O[C@@H](CO)[C@@H](O)[C@H](O)[C@H]3O)CC(=O)N(CCO[C@H]3O[C@@H](CO)[C@@H](O)[C@H](O)[C@H]3O)CC(=O)N(CCO[C@H]3O[C@@H](CO)[C@@H](O)[C@H](O)[C@H]3O)CC(=O)N(CCO[C@H]3O[C@@H](CO)[C@@H](O)[C@H](O)[C@H]3O)CC(N)=O)cccc12`, the Kd is 14 uM l-1.

The compound `CN(C)c1cccc2c(S(=O)(=O)N(CCO[C@H]3O[C@@H](CO)[C@@H](O)[C@H](O)[C@H]3O)CC(=O)N(CCO[C@H]3O[C@@H](CO)[C@@H](O)[C@H](O)[C@H]3O)CC(=O)N(CCO[C@H]3O[C@@H](CO)[C@@H](O)[C@H](O)[C@H]3O)CC(N)=O)cccc12` came in with a Kd of 9 uM l-1.
